Data published in US20250296948A1, “SYNTHESIS OF NUCLEOSIDE DERIVATIVES” (Nucana plc, priority 2022, published 2025).

Assays:
[1] = dog, compared with 5-FU; cited from earlier work
[2] = Solution stability in DMA:Saline (80:20 v/v) by UPLC; type: physicochemical; conditions: 2-8° C.; for Assay / Purity / Total Impurities: DMA:Saline (80:20 v/v) solution, UPLC
Protocol: The inventors have found in further work that DMA:Saline (80:20 v/v) solutions of samples obtained according to the process of the invention show no loss of purity or assay, and alpha naphthol impurity up to 12 months at 2-8° C.

tumour cells = conditions: non-clinical studies, compared with 5-FU and capecitabine; cited from earlier work
[3] = Solution stability, alpha naphthol (0.60 RRT) in DMA:Saline (80:20 v/v); type: physicochemical; set-up: 0.60 RRT (Alpha Naphthol): unit not given here; conditions: for 0.60 RRT (Alpha Naphthol): 400 mg/mL in DMA:Saline (80:20 v/v)
Protocol: Stability data is also provided in Table 4, which compares the levels of alpha naphthol (0.60 RRT) present in solutions of 400 mg/mL NUC-3373, prepared by Example 3 or 4, above, in DMA:Saline (80:20 v/v) at different temperatures measured over set periods of time. The tested solutions are suitable for infusion and injection and the temperatures and times measured are representative of the environments that solutions suitable for infusion and injection would typically be stored in.
In Table 4 the two values provided for each temperature at each time period, separated by “/”, represent different preparations (samples) of that synthesis.

[4] = 6 month dry powder stability, HPLC assay; type: physicochemical
Text: (§1) NUC-3373 prepared according to Example 3 and Comparative Example 4 was packed into a transparent LDPE bag which was then filled with nitrogen and tied with a strip seal. This bag was then placed into another transparent LDPE bag which was also filled with nitrogen. A silica gel packet was placed between the two bags before the outermost bag was tied with a strip seal. These bags were then placed in a triple laminated sun light barrier bag which was sealed with a heat sealer. The bags were kept in a HDPE container.
(§2) NUC-3373 was initially assayed by HPLC after manufacture (0 months) then after 1 and 2 and/or 3 and 6 months of storage at 2-8° C., 25° C. or 40° C.

a range of cancer models = conditions: compared with 5-fluorouracil; cited from earlier work
[5] = 12 month dry powder stability, HPLC assay; type: physicochemical
Text: as §1, with “3, above,” for “3 and Comparative Example 4”, “container. The NUC-3373 was initially assayed by HPLC after manufacture then after 3, 6, 9 and 12 months of storage.” for “container.”

[6] = 6 month dry powder stability, Alpha Naphthol content by HPLC; type: physicochemical
Text: as §1, §2
The Alpha Naphthol content of the same batches was also determined by HPLC. The levels of the alpha naphthol impurity is a key indicator of stability of the tested material.

SMILES: C[C@H](NP(=O)(OC[C@H]1O[C@@H](n2cc(F)c(=O)[nH]c2=O)CC1O)Oc1cccc2ccccc12)C(=O)OCc1ccccc1 (stereo partly drawn) [NUC-3373, 5-fluoro-2′-deoxyuridine-5′-O-[1-naphthyl (benzoxy-L-alaninyl)] phosphate]
- tolerability [1]: significantly better tolerated than 5-FU
- Assay ([2]; 3rd month): 99%
- Purity ([2]; 3rd month): 99.9%
- Total Impurities ([2]; 3rd month): 0.07%
- Assay ([2]; 6th month): 101%
- Purity ([2]; 6th month): 99.9%
- Total Impurities ([2]; 6th month): 0.08%
- Assay ([2]; 12th month): 101%
- Purity ([2]; 12th month): 99.9%
- Total Impurities ([2]; 12th month): 0.09%
- Assay ([2]; Initial): 101%
- Purity ([2]; Initial): 99.9%
- Total Impurities ([2]; Initial): 0.07%
- time solutions chemically and physically stable ([2]; DMA:Saline (80:20 v/v) solutions): at least 12 months
- inhibition of tumour cell growth (tumour cells): much greater inhibition of tumour cell growth
- stability of solutions compared with other methods of preparation ([3]; solutions in DMA:Saline (80:20 v/v), particularly at room temperature): more stable than those prepared by other methods
- thermal stability compared with other methods of preparation ([4]; Tables 2 and 3, prepared according to the process of the invention): thermally more stable than those prepared by other methods
- activity in vitro against a range of cancer models (a range of cancer models): outstanding and far superior to the results obtained with 5-fluorouracil
- HPLC assay (% w/w on anhydrous and solvent free basis) ([5]; 5 ± 3° C., 3rd month): 99.9 % w/w
- HPLC assay (% w/w on anhydrous and solvent free basis) ([5]; 5 ± 3° C., 6th month): 100.9 % w/w
- HPLC assay (% w/w on anhydrous and solvent free basis) ([5]; 5 ± 3° C., 9th month): 101.5 % w/w
- HPLC assay (% w/w on anhydrous and solvent free basis) ([5]; 5 ± 3° C., 12th month): 99.4 % w/w
- HPLC assay (% w/w on anhydrous and solvent free basis) ([5]; 5 ± 3° C., Initial): 99.6 % w/w
- HPLC assay (% w/w on anhydrous and solvent free basis) ([5]; 25 ± 2° C., 3rd month): 99.6 % w/w
- HPLC assay (% w/w on anhydrous and solvent free basis) ([5]; 25 ± 2° C., 6th month): 100.7 % w/w
- HPLC assay (% w/w on anhydrous and solvent free basis) ([5]; 25 ± 2° C., 9th month): 101.5 % w/w
- HPLC assay (% w/w on anhydrous and solvent free basis) ([5]; 25 ± 2° C., 12th month): 99.4 % w/w
- HPLC assay (% w/w on anhydrous and solvent free basis) ([5]; 25 ± 2° C., Initial): 99.6 % w/w
- time chemically stable ([5]; at both 2-8° C. and 15-30° C.): at least 12 months

SMILES: C[C@H](NP(=O)(OC[C@H]1O[C@@H](n2cc(F)c(=O)[nH]c2=O)CC1O)Oc1cccc2ccccc12)C(=O)OCc1ccccc1 (stereo partly drawn) [Example 3, Batch 1, 5-fluoro-2′-deoxyuridine-5′-O-[1-naphthyl (benzoxy-L-alaninyl)] phosphate]
- Increase after 6 months, Alpha Naphthol by HPLC ([6]; 2-8 ° C.): None
- Alpha Naphthol by HPLC (% w/w) ([6]; 2-8 ° C., 0 months): 0.15 % w/w
- Alpha Naphthol by HPLC (% w/w) ([6]; 2-8 ° C., 3 months): 0.16 % w/w
- Alpha Naphthol by HPLC (% w/w) ([6]; 2-8 ° C., 6 months): 0.15 % w/w
- Increase after 6 months, Alpha Naphthol by HPLC ([6]; 25 ° C.): None
- Alpha Naphthol by HPLC (% w/w) ([6]; 25 ° C., 0 months): 0.15 % w/w
- Alpha Naphthol by HPLC (% w/w) ([6]; 25 ° C., 3 months): 0.15 % w/w
- Alpha Naphthol by HPLC (% w/w) ([6]; 25 ° C., 6 months): 0.14 % w/w
- Increase after 6 months, Alpha Naphthol by HPLC ([6]; 40 ° C.): None
- Alpha Naphthol by HPLC (% w/w) ([6]; 40 ° C., 0 months): 0.15 % w/w
- Alpha Naphthol by HPLC (% w/w) ([6]; 40 ° C., 1 month): 0.15 % w/w
- Alpha Naphthol by HPLC (% w/w) ([6]; 40 ° C., 2 months): 0.15 % w/w
- Alpha Naphthol by HPLC (% w/w) ([6]; 40 ° C., 3 months): 0.14 % w/w
- Alpha Naphthol by HPLC (% w/w) ([6]; 40 ° C., 6 months): 0.13 % w/w
- 0.60 RRT (Alpha Naphthol) ([3]; After 1 month at 2-8° C., first preparation (before "/")): 0.07/0.07
- 0.60 RRT (Alpha Naphthol) ([3]; After 1 month at 2-8° C., second preparation (after "/")): 0.07/0.07
- 0.60 RRT (Alpha Naphthol) ([3]; After 1 month at 25 ± 5° C., first preparation (before "/")): 0.08/0.08
- 0.60 RRT (Alpha Naphthol) ([3]; After 1 month at 25 ± 5° C., second preparation (after "/")): 0.08/0.08
- 0.60 RRT (Alpha Naphthol) ([3]; After 3 months at 2-8° C., first preparation (before "/")): 0.07/0.07
- 0.60 RRT (Alpha Naphthol) ([3]; After 3 months at 2-8° C., second preparation (after "/")): 0.07/0.07
- 0.60 RRT (Alpha Naphthol) ([3]; After 3 months at 25 ± 5° C., first preparation (before "/")): 0.10
- 0.60 RRT (Alpha Naphthol) ([3]; After 3 months at 25 ± 5° C., second preparation (after "/")): 0.11
- 0.60 RRT (Alpha Naphthol) ([3]; After 6 months at 2-8° C., first preparation (before "/")): 0.07
- 0.60 RRT (Alpha Naphthol) ([3]; After 6 months at 2-8° C., second preparation (after "/")): 0.08
- 0.60 RRT (Alpha Naphthol) ([3]; After 6 months at 25 ± 5° C., first preparation (before "/")): 0.20
- 0.60 RRT (Alpha Naphthol) ([3]; After 6 months at 25 ± 5° C., second preparation (after "/")): 0.22
- 0.60 RRT (Alpha Naphthol) ([3]; After 9 months at 2-8° C., first preparation (before "/")): 0.07
- 0.60 RRT (Alpha Naphthol) ([3]; After 9 months at 2-8° C., second preparation (after "/")): 0.08
- 0.60 RRT (Alpha Naphthol) ([3]; After 9 months at 25 ± 5° C., first preparation (before "/")): 0.42
- 0.60 RRT (Alpha Naphthol) ([3]; After 9 months at 25 ± 5° C., second preparation (after "/")): 0.38
- 0.60 RRT (Alpha Naphthol) ([3]; After 15 days at 2-8° C., first preparation (before "/")): 0.07/0.07
- 0.60 RRT (Alpha Naphthol) ([3]; After 15 days at 2-8° C., second preparation (after "/")): 0.07/0.07
- 0.60 RRT (Alpha Naphthol) ([3]; After 15 days at 25 ± 5° C., first preparation (before "/")): 0.07
- 0.60 RRT (Alpha Naphthol) ([3]; After 15 days at 25 ± 5° C., second preparation (after "/")): 0.08
- 0.60 RRT (Alpha Naphthol) ([3]; Initial): 0.07
- Decrease after 6 months, HPLC assay ([4]; 2-8 ° C.): None
- HPLC assay (% w/w on anhydrous and solvent free basis) ([4]; 2-8 ° C., 0 months): 100.4 % w/w
- HPLC assay (% w/w on anhydrous and solvent free basis) ([4]; 2-8 ° C., 3 months): 101.5 % w/w
- HPLC assay (% w/w on anhydrous and solvent free basis) ([4]; 2-8 ° C., 6 months): 100.4 % w/w
- Decrease after 6 months, HPLC assay ([4]; 25 ° C.): None
- HPLC assay (% w/w on anhydrous and solvent free basis) ([4]; 25 ° C., 0 months): 100.4 % w/w
- HPLC assay (% w/w on anhydrous and solvent free basis) ([4]; 25 ° C., 3 months): 101.1 % w/w
- HPLC assay (% w/w on anhydrous and solvent free basis) ([4]; 25 ° C., 6 months): 100.8 % w/w
- Decrease after 6 months, HPLC assay ([4]; 40 ° C.): None
- HPLC assay (% w/w on anhydrous and solvent free basis) ([4]; 40 ° C., 0 months): 100.4 % w/w
- HPLC assay (% w/w on anhydrous and solvent free basis) ([4]; 40 ° C., 1 month): 100.0 % w/w
- HPLC assay (% w/w on anhydrous and solvent free basis) ([4]; 40 ° C., 2 months): 101.5 % w/w
- HPLC assay (% w/w on anhydrous and solvent free basis) ([4]; 40 ° C., 3 months): 101.6 % w/w
- HPLC assay (% w/w on anhydrous and solvent free basis) ([4]; 40 ° C., 6 months): 100.7 % w/w
